Test results published in paper doi:10.1101/2025.10.06.680810v1 (biorxiv, 2025).

Target: NLRP3 (purified) (Homo sapiens, UniProt Q96P20, K138A/K142A/R137C)
Assay: fluorescence polarization displacement
Format: binding

Sequence of NLRP3 (purified) (Q96P20 136-1034 R137C/K138A/K142A): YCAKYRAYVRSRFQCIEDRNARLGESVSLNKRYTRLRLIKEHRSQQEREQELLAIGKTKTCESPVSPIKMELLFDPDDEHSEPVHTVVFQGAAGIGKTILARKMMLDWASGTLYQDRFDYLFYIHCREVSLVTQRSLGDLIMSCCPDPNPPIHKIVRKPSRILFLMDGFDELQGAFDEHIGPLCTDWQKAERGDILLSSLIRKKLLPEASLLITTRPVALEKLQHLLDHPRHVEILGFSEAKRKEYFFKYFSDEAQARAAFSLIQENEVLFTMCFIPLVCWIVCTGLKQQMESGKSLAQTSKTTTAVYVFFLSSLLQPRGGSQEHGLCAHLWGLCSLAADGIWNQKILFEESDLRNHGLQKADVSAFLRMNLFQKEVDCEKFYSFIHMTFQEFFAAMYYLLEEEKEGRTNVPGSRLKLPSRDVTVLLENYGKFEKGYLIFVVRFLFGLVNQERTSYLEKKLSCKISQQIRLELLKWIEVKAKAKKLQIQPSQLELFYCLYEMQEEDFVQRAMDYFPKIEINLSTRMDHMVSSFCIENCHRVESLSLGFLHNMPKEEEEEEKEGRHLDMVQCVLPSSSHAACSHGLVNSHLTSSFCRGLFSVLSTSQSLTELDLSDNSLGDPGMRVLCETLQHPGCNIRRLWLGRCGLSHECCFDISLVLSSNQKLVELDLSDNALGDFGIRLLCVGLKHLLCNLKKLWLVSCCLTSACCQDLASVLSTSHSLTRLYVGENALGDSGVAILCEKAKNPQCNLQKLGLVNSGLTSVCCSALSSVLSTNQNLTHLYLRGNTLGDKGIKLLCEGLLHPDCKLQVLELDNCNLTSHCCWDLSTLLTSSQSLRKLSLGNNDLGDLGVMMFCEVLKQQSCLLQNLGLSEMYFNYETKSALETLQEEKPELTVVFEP

IC50: 0.0193 ± 0.0022 µM
SMILES: O=C(CN1C[C@@H](C(F)(F)F)c2cc(I)ccc2C1=O)Nc1ncc(F)cn1 [TN-783, N-(5-fluoropyrimidin-2-yl)-2-[(4s)-6-iodo-1-oxo-4-(trifluoromethyl)-3,4-dihydroisoquinolin-2-yl]acetamide]
